From publication PMC11362529, “Exploring the neuroprotective potential of Nrf2-pathway activators against annonacin toxicity” (Scientific Reports, 2024)

Columns and labels:
Type in all cases: cell-based, human
LUHMES cells [1] = test: Protective effects against annonacin toxicity, calcein viability assay; conditions: with 20 nM annonacin, glucose-reduced medium, 48 h; 40 μM Ki 696–2, 1 μM HPP-D, 15 μM ezetimibe, 4 μM licochalcone A; most protective or highest non-toxic concentration for the others
Protocol: The calcein AM green dye (Thermo Fisher Scientific) was diluted in DMSO to obtain a 1 mM stock solution. The stock solution was further diluted in HBSS (Hanks' balanced salt solution), immediately before incubation, to achieve a final working concentration of 1 μM in the well. The medium was removed, the cells were washed once with warm HBSS, and 200 µl of calcein working solution was added to each well. For background correction, 200 µl of calcein working solution was added to a well without cells (background control). After 30 min of incubation at 37 °C, the calcein solution was removed and the cells were washed once with HBSS. Cells were lysed in a 200 µl volume of 1% Triton™ X-100 in PBS (phosphate buffered saline) and the lysate transferred to a 96‐well black plate for the readout. The fluorescence signal was measured on a FLUOstar® Omega plate reader (BMG LabTech, Ortenberg, Germany) at λ Ex/Em = 485/530 nm and data was analyzed with the MARS data analysis software (BMG LabTech). For background correction, we subtracted the background control signal from the measured values of all experimental conditions. Data were expressed as percentage of viability relative to the control (DMSO-treated) condition.
For pharmacological treatments, we acquired several previously described Nrf2-pathway activators: ezetimibe (Cayman), licochalcone A (MedChem Express, New Jersey, NJ, USA), bardoxolone methyl, saracatinib and PP2 (AbMole BioScience Inc., Houston, TX, USA). The enantiomers Ki 696–1 and Ki 696–2, and the compound HPP-D were kindly provided by Orion Pharma (Espoo, Finland). All compounds were dissolved in DMSO and stored in small aliquots at -80 °C to avoid freeze–thaw cycles. Compound general toxicity was determined on PLO/FN double-coated 48-well microplates as follows: after 4 days of differentiation, LUHMES cells were incubated with the different Nrf2-pathway activators at concentrations ranging from 1 nM to 100 µM, for 96 h. The cell viability was assessed by calcein assay on day 8 of differentiation. Non-toxic concentrations of the Nrf2-pathway activators were selected and used in the pharmacological treatments, in combination with 20 nM of annonacin, in glucose-reduced differentiation medium, over a period of 48 h, similar to an in vitro model reported before. The protective effects of Nrf2-pathway activators against annonacin toxicity were determined in terms of cell viability with the calcein assay.

LUHMES cells [2] = test: Compound general toxicity, calcein viability assay; conditions: 1 nM to 100 μM, 96 h, differentiation medium, calcein fluorescence
Protocol: We used LUHMES (lund human mesencephalic) cells derived from human embryonic ventral mesencephalic cells by conditional immortalization (Tet-off v-myc overexpression). Cells were grown in monolayer at 37 °C in a humidified atmosphere of 5% CO2, in 75 cm^2 tissue culture flasks coated with 0.05 µg/ml PLO (poly-L-ornithine). Cells were maintained in growth medium of DMEM/F12 (Sigma-Aldrich, St. Louis, MO, USA), supplemented with 1% N-2 supplement (Gibco, Thermo Fisher Scientific, Waltham, MA, USA) and 0.04 µg/ml basic fibroblast growth factor (PreproTech EC, Waltham, MA, USA), and routinely dissociated with trypsin–EDTA solution and subcultured when reaching 70% confluence to avoid overgrowth. […]
The calcein AM green dye (Thermo Fisher Scientific) was diluted in DMSO to obtain a 1 mM stock solution. […] Cells were lysed in a 200 µl volume of 1% Triton™ X-100 in PBS (phosphate buffered saline) and the lysate transferred to a 96‐well black plate for the readout. The fluorescence signal was measured on a FLUOstar® Omega plate reader (BMG LabTech, Ortenberg, Germany) at λ Ex/Em = 485/530 nm and data was analyzed with the MARS data analysis software (BMG LabTech). For background correction, we subtracted the background control signal from the measured values of all experimental conditions. Data were expressed as percentage of viability relative to the control (DMSO-treated) condition. […]

LUHMES cells [3] = test: Mitochondrial superoxide (MitoSOX / calcein AM); conditions: 100 µM H2O2, 2 h, positive control
Protocol: As before, cells seeded on PLO/FN-coated 24-well microplates were treated for 48 h with 20 nM of annonacin and the selected concentrations of Nrf2-pathway activators, in glucose-reduced medium. After this period, the medium was removed, and the cells were washed once with warm HBSS before being simultaneously incubated with 0.5 µM of MitoSOX™ red (Thermo Fisher Scientific) and 1 µM of calcein AM for 30 min at 37 °C. Next, the cells were again washed with HBSS and fresh HBSS was added to maintain cell viability during live-image acquisition on a fluorescence microscope Leica-DFC9000GTC (Leica). The cells were kept under controlled environmental conditions, and similar image acquisition parameters were used for all images, as explained before. We acquired ten to fifteen images per condition, from different view fields across triplicates, with a 200 × magnification (20 × objective, 10 × intermediate magnification). Quantification of MitoSOX and calcein AM FI was performed using the ImageJ software. Briefly, TIFF exported images were submitted to background subtraction using the rolling ball method with a radius of 50 pixels. Channel-specific thresholds were applied to all images to define the ROI, and the FI were measured as integrated density and reported as arbitrary units (a. u.). The MitoSOX FI was normalized to cell viability estimated by calcein AM FI, to obtain a MitoSOX FI/calcein FI ratio. The average ratio of the different view fields per experimental condition was taken and reported as fold change relative to the control (DMSO-treated) condition.

LUHMES cells [4] = test: Mitochondrial membrane potential (JC-1 probe); conditions: CCCP 50 µM, positive control
Protocol: In PLO/FN-coated 24-well microplates, cells were simultaneously incubated with 20 nM of annonacin and the selected concentrations of Nrf2-pathway activators, in glucose-reduced medium, over the course of 24 h. After that, the medium was removed and cells were washed once with warm HBSS, followed by incubation with 5 µM JC-1 solution in HBSS, for 20 min at 37 °C. For the positive control, the mitochondrial oxidative phosphorylation uncoupler, CCCP, was used at a concentration of 50 µM. After the incubation period, cells were washed with HBSS, and fresh HBSS was added to keep the cells viable during live-image acquisition. Image acquisition was done on a fluorescence microscope Leica-DFC9000GTC (Leica, Frankfurt, Germany). Environmental conditions were kept steady at 37 °C with a 5% CO2 atmosphere during the entire acquisition time. Ten to fifteen images from different fields of view, dispersed across triplicates, were acquired with 200 × magnification (20 × objective, 10 × intermediate magnification), using the same image acquisition parameters for all conditions. The fluorescence of JC-1 monomers was captured on the green channel (λ Ex/Em = 475/519 nm) and the fluorescence of JC-1 aggregates was capture on the red channel (λ Ex/Em = 555/594 nm). Quantification of FI (fluorescence intensities) of JC-1 monomeric and aggregated forms was done using the ImageJ software (http://rsb.info.nih.gov/ij/, ImageJ bundled with 64-bit Java 8). Briefly, TIFF exported images were submitted to background subtraction using the rolling ball method with a radius of 50 pixels. Channel-specific thresholds were applied to all images to define the ROI (region of interest) and FI were measured as integrated density. Data were reported as the ratio between JC-1 aggregates and monomers, obtained by dividing the FI of the JC-1 aggregated form by the FI of the monomeric form.

Structure (SMILES): CN1CCN(CCOc2cc(OC3CCOCC3)c3c(Nc4c(Cl)ccc5c4OCO5)ncnc3c2)CC1 [saracatinib]
- reduction of annonacin toxicity (LUHMES cells [1]): no statistical differences

Structure (SMILES): COC(=O)[C@]12CCC(C)(C)C[C@H]1[C@H]1C(=O)C=C3[C@@]4(C)C=C(C#N)C(=O)C(C)(C)[C@@H]4CC[C@@]3(C)[C@]1(C)CC2 [bardoxolone, bardoxolone methyl]
- impact on viability of differentiated LUHMES neuronal cells (compound toxicity) (LUHMES cells [2]): extremely neurotoxic at concentrations above the nanomolar range

Structure (SMILES): CC(C)(C)n1nc(-c2ccc(Cl)cc2)c2c(N)ncnc21 [PP2]
- reduction of annonacin toxicity (LUHMES cells [1]): no statistical differences

Structure (SMILES): OO [H2O2]
- MitoSOX fluorescence intensity (LUHMES cells [3]): increased the MitoSOX fluorescence intensity

Structure (SMILES): N#CC(C#N)=NNc1cccc(Cl)c1 [CCCP]
- mitochondrial membrane potential (JC-1 aggregates) (LUHMES cells [4]): drastically reduced the presence of JC-1 aggregates
